According to ChEMBL document CHEMBL3991601, “The target landscape of clinical kinase drugs” (Science, 2017):
Where a name gives a salt, the structure may show the parent alone. The source made the active and inactive calls.

Experiments:
[1] = molecular target: T1, Peroxisomal acyl-coenzyme A oxidase 1 (Homo sapiens, UniProt Q15067)
T1 sequence (Q15067 whole entry): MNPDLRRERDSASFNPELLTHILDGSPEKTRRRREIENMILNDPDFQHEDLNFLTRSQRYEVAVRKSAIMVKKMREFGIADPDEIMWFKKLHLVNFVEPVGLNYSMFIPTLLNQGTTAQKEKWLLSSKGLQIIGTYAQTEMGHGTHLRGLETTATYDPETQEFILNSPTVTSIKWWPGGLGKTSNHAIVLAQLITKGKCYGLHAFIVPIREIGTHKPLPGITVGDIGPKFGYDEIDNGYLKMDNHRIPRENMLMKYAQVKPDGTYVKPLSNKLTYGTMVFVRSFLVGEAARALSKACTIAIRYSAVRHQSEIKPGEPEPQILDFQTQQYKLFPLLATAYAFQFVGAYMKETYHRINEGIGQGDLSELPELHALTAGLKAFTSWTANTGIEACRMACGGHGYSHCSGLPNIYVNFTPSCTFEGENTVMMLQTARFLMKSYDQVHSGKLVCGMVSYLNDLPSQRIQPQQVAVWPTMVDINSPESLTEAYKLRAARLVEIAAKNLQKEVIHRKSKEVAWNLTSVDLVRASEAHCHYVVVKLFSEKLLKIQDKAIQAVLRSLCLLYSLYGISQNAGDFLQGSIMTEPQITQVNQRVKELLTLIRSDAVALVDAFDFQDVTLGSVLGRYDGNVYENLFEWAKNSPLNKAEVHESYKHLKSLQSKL

[2] = molecular target: Bone morphogenetic protein receptor type-1B (Homo sapiens, UniProt O00238)
[3] = molecular target: ATP-dependent RNA helicase DDX3X (Homo sapiens, UniProt O00571)
Ephrin type-A receptor 5 = Ephrin type-A receptor 5 (Homo sapiens, UniProt P54756)
[4] = molecular target: T2, Ferrochelatase, mitochondrial (Homo sapiens, UniProt P22830)
T2 sequence (P22830 whole entry): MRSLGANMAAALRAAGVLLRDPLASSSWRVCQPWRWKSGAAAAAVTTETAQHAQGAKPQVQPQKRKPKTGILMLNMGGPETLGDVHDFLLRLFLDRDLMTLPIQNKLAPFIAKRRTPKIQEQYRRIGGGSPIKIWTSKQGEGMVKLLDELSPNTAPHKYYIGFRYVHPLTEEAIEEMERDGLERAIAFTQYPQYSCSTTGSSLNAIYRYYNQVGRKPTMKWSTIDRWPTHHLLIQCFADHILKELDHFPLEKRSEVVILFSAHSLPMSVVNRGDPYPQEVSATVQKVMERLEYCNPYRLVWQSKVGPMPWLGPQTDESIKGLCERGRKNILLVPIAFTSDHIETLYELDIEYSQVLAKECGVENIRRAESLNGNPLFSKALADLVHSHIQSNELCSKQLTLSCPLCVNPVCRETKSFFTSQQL

[5] = molecular target: Fibroblast growth factor receptor 1 (Homo sapiens, UniProt P11362)
[6] = molecular target: Tyrosine-protein kinase FRK (Homo sapiens, UniProt P42685)
LIM domain kinase 2 = LIM domain kinase 2 (Homo sapiens, UniProt P53671)
[7] = molecular target: MAP/microtubule affinity-regulating kinase 3 (Homo sapiens, UniProt P27448)
Midasin = Midasin (Homo sapiens, UniProt Q9NU22)
Myosin-14 = Myosin-14 (Homo sapiens, UniProt Q7Z406)
[8] = molecular target: T3, Ras-related protein Rab-10 (Homo sapiens, UniProt P61026)
T3 sequence (P61026 whole entry): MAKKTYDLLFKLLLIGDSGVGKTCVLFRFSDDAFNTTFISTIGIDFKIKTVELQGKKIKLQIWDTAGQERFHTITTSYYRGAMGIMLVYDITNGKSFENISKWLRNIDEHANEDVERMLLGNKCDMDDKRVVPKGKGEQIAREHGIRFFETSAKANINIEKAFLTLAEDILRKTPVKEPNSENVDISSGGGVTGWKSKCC

[9] = molecular target: T4, Acyl-CoA dehydrogenase family member 11 (Homo sapiens, UniProt Q709F0)
T4 sequence (Q709F0 whole entry): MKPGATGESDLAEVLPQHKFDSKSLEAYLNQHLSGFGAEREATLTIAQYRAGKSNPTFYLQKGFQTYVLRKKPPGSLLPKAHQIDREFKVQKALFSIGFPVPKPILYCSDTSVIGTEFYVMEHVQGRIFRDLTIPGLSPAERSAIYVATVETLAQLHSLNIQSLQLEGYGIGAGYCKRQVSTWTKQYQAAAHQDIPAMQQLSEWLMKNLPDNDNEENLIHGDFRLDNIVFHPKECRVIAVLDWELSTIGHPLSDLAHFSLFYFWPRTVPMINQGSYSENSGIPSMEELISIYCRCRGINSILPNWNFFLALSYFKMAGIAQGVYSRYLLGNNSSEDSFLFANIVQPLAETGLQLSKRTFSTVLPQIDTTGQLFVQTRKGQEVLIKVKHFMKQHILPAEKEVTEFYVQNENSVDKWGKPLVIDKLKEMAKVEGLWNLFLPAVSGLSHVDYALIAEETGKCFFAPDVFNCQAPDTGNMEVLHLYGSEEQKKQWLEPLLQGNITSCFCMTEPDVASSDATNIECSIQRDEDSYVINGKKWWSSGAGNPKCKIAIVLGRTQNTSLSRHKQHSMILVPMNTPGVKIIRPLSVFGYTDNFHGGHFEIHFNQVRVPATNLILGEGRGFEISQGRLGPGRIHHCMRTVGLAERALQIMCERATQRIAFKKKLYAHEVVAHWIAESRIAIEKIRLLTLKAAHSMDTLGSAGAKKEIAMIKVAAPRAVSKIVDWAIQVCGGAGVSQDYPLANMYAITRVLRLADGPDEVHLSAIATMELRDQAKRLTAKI

[10] = molecular target: T5, Cytochrome c1, heme protein, mitochondrial (Homo sapiens, UniProt P08574)
T5 sequence (P08574 whole entry): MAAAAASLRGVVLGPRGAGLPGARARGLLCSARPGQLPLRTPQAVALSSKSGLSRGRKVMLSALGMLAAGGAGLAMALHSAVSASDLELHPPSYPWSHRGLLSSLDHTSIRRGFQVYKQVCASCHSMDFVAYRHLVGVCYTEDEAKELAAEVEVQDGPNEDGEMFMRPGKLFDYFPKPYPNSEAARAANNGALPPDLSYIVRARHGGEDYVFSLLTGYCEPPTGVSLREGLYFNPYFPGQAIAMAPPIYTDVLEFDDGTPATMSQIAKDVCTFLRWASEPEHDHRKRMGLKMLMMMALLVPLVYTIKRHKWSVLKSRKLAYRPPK
Note: in the data inactive means no Kd found up to 30 µM.

Sequence of Myosin-14 (Q7Z406 whole entry): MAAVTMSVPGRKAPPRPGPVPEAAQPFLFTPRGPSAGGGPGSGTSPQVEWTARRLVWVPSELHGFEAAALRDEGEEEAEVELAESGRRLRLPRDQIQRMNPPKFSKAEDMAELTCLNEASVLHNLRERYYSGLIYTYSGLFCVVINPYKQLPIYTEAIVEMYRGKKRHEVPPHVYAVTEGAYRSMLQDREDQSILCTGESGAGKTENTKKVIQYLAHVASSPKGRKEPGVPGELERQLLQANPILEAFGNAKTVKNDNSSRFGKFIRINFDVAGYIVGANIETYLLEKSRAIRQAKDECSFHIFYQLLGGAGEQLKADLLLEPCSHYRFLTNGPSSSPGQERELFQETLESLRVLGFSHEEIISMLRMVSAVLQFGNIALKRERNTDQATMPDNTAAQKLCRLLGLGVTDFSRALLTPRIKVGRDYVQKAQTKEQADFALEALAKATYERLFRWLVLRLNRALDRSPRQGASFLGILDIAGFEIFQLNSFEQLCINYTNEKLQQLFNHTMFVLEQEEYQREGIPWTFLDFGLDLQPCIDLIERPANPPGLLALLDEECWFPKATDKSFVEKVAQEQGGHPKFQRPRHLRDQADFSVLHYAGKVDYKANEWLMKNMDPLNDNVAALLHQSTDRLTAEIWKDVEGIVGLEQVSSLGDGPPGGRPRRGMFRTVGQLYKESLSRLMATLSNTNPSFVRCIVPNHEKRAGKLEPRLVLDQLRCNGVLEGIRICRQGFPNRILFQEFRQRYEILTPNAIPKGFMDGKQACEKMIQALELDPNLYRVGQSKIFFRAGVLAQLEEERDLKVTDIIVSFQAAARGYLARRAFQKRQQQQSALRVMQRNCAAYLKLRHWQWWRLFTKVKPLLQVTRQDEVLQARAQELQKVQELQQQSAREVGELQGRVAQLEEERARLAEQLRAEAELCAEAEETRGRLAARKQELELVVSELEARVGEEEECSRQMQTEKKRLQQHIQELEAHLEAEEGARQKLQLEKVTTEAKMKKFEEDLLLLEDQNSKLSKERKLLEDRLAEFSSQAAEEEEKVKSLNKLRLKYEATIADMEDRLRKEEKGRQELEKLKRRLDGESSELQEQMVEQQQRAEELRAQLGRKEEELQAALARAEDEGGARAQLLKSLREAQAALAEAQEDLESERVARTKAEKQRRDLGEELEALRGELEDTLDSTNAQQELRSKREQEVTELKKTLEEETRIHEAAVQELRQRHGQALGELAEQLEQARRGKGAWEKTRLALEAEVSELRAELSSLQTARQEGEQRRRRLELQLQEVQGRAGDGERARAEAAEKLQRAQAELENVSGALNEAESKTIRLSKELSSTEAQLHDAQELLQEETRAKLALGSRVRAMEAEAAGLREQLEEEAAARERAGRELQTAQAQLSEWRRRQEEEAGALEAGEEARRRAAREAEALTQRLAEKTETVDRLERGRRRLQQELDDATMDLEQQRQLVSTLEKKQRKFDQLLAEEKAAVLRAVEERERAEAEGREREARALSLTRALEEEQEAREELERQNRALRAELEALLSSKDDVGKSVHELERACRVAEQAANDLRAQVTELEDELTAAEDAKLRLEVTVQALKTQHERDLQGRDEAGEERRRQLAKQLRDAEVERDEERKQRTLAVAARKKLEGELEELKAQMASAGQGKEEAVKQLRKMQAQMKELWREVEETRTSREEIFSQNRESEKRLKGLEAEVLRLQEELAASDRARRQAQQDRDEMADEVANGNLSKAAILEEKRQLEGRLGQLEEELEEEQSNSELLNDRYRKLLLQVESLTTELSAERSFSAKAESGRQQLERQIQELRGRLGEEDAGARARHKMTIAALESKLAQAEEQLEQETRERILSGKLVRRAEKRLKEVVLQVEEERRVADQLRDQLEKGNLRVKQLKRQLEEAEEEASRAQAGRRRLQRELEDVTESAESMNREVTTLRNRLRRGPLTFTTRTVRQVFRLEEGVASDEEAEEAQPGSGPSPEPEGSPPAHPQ
Sequence of Tyrosine-protein kinase FRK (P42685 whole entry, the tested form may be a part): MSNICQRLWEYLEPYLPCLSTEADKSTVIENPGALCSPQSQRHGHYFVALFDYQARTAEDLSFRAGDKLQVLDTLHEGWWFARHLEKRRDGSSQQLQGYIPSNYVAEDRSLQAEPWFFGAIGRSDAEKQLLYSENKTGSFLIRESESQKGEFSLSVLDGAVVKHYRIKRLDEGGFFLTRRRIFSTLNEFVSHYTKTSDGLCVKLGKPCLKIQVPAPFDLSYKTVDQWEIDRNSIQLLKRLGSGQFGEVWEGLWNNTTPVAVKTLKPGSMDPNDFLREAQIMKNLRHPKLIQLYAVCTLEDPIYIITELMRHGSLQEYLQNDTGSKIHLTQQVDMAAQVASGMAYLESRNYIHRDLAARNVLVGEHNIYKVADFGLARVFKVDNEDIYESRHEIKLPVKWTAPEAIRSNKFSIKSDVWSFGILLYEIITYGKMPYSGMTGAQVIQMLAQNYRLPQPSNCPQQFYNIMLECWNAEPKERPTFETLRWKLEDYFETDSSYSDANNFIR
Sequence of LIM domain kinase 2 (P53671 whole entry, the tested form may be a part): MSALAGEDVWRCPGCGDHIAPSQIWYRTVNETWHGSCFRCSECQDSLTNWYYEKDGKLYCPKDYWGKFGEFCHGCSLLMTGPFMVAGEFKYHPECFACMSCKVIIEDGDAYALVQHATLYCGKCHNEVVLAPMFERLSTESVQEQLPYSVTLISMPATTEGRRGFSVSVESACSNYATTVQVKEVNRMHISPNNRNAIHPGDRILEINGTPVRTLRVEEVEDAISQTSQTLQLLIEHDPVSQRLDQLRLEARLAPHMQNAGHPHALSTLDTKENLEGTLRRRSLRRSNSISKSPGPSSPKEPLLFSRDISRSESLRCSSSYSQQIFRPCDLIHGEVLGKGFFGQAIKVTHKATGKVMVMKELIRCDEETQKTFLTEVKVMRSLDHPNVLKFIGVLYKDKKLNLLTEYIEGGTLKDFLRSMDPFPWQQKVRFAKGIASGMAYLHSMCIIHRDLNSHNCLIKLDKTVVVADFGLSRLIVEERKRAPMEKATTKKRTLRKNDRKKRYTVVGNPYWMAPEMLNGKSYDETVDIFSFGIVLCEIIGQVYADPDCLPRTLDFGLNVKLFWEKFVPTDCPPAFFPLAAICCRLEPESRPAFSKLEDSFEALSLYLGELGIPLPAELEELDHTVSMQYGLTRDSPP
Sequence of MAP/microtubule affinity-regulating kinase 3 (P27448 whole entry): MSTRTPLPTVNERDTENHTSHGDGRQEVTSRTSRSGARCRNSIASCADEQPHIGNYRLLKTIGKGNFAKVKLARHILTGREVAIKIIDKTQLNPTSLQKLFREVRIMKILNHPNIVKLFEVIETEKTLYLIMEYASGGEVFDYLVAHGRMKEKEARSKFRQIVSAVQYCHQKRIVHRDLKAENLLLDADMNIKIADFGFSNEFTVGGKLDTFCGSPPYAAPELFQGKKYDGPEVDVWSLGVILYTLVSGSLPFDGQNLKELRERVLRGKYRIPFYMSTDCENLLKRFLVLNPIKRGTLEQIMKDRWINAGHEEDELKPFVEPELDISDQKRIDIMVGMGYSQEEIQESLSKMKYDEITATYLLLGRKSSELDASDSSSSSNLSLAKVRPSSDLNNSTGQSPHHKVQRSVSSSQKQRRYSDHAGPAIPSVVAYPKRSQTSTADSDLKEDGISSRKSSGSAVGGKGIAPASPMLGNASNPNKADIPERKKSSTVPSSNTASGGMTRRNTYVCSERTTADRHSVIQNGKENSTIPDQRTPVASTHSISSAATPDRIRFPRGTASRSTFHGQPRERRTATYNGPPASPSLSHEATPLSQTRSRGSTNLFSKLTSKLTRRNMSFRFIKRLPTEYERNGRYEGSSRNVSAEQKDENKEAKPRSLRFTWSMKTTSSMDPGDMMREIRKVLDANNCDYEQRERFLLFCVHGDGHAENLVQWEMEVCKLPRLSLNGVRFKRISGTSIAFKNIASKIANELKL
Sequence of Ephrin type-A receptor 5 (P54756 whole entry): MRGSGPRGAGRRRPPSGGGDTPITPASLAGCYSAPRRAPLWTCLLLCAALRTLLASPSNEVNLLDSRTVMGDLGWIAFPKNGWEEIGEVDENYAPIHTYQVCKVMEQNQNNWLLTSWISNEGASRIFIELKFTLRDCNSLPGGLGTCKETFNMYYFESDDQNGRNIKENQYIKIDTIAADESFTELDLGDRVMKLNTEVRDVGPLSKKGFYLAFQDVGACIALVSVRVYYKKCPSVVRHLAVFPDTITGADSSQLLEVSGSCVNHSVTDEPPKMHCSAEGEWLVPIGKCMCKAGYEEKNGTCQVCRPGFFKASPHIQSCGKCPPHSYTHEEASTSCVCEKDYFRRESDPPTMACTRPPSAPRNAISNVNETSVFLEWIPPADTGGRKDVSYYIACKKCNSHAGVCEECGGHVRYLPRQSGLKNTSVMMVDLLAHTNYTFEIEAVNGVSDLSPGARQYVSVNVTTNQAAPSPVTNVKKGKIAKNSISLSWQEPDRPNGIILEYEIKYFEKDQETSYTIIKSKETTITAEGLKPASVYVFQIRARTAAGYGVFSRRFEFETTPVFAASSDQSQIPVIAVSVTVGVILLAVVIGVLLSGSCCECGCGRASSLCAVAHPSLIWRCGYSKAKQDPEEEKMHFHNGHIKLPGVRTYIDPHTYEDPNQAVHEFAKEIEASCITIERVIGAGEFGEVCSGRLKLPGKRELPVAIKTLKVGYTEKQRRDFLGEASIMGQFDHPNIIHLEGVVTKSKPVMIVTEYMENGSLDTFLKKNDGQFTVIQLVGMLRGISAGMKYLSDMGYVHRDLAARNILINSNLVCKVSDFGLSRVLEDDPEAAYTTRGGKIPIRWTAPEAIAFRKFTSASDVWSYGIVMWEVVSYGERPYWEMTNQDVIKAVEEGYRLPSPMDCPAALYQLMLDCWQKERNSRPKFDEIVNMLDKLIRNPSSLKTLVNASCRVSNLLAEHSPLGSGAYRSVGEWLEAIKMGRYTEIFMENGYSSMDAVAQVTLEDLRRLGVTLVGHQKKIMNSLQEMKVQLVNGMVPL

Row | Kd [1] | Kd [2] | Kd [3] | Kd (Ephrin type-A receptor 5) | Kd [4] | Kd [5] | Kd [6] | Kd (LIM domain kinase 2) | Kd [7] | Kd (Midasin) | Kd (Myosin-14) | Kd [8] | Kd [9] | Kd [10] | SMILES
1 | > 30 µM (inactive) | > 30 µM (inactive) | > 30 µM (inactive) | > 30 µM (inactive) | > 30 µM (inactive) | > 30 µM (inactive) | > 30 µM (inactive) | > 30 µM (inactive) | > 30 µM (inactive) | > 30 µM (inactive) | > 30 µM (inactive) | > 30 µM (inactive) |  |  | C[C@@H](Oc1cc(C(=O)Nc2ccc(C(=O)N3CCN(C)CC3)cc2)nnc1N)c1c(Cl)ccc(F)c1Cl
2 | > 30 µM (inactive) | 0.123 µM (active) | > 30 µM (inactive) | > 30 µM (inactive) | > 30 µM (inactive) |  | > 30 µM (inactive) | > 30 µM (inactive) | > 30 µM (inactive) | > 30 µM (inactive) | > 30 µM (inactive) | > 30 µM (inactive) | > 30 µM (inactive) | > 30 µM (inactive) | Cc1nc2cc(-c3nn(C(C)C)c4ncnc(N)c34)ccc2o1
3 | > 30 µM (inactive) | > 30 µM (inactive) | > 30 µM (inactive) | > 30 µM (inactive) | > 30 µM (inactive) | > 30 µM (inactive) | > 30 µM (inactive) | > 30 µM (inactive) | > 30 µM (inactive) | > 30 µM (inactive) |  | > 30 µM (inactive) |  | > 30 µM (inactive) | C=CC(=O)Nc1cc2c(Nc3ccc(F)c(Cl)c3)ncnc2cc1C#CC(C)(C)N1CCN(C)CC1 [AV-412 FREE BASE]
4 | > 30 µM (inactive) | > 30 µM (inactive) | > 30 µM (inactive) | > 30 µM (inactive) | > 30 µM (inactive) | > 30 µM (inactive) | > 30 µM (inactive) | > 30 µM (inactive) |  | > 30 µM (inactive) |  | > 30 µM (inactive) | > 30 µM (inactive) | > 30 µM (inactive) | CCS(=O)(=O)N1CCN(c2ccc(Nc3ncc(C(N)=O)c(NC4CC4)n3)cc2)CC1 [Cerdulatinib Hydrochloride]
5 | > 30 µM (inactive) | > 30 µM (inactive) | > 30 µM (inactive) | > 30 µM (inactive) | 3.42 µM (active) | > 30 µM (inactive) | > 30 µM (inactive) | > 30 µM (inactive) | > 30 µM (inactive) | > 30 µM (inactive) | > 30 µM (inactive) | > 30 µM (inactive) |  | > 30 µM (inactive) | CN(C[C@@H]1COCCO1)S(=O)(=O)Nc1ccc2ccc3ncc(-c4cnn(C)c4)cc3c(=O)c2c1 [MK-2461]
6 | > 30 µM (inactive) | > 30 µM (inactive) | > 30 µM (inactive) | 0.508 µM (active) | > 30 µM (inactive) | 1.39 µM (active) | 0.222 µM (active) | > 30 µM (inactive) |  | > 30 µM (inactive) | > 30 µM (inactive) | > 30 µM (inactive) | > 30 µM (inactive) | > 30 µM (inactive) | CCS(=O)(=O)c1cccc(-c2cc(C(=O)NC3CCN(C)CC3)c(C)c3[nH]c4ncc(C)cc4c23)c1 [TAK-901]
7 | > 30 µM (inactive) | > 30 µM (inactive) | > 30 µM (inactive) | > 30 µM (inactive) | > 30 µM (inactive) | > 30 µM (inactive) | > 30 µM (inactive) | > 30 µM (inactive) |  | > 30 µM (inactive) | > 30 µM (inactive) | > 30 µM (inactive) |  | > 30 µM (inactive) | Cn1ncc(Cl)c1-c1cc(C(=O)N[C@H](CN)Cc2ccc(F)c(F)c2)oc1Cl [UPROSERTIB]

Row | SMILES | Kd [1] | Kd [2] | Kd [3] | Kd (Ephrin type-A receptor 5) | Kd [4] | Kd [5] | Kd [6] | Kd (LIM domain kinase 2) | Kd [7] | Kd (Midasin) | Kd (Myosin-14) | Kd [8] | Kd [9] | Kd [10]
8 | COc1cc([C@@H]2c3cc4c(cc3[C@H](O)[C@H]3COC(=O)[C@@H]23)OCO4)cc(OC)c1OC [AXL-1717] | > 30 µM (inactive) | > 30 µM (inactive) | > 30 µM (inactive) | > 30 µM (inactive) | > 30 µM (inactive) | > 30 µM (inactive) | > 30 µM (inactive) | > 30 µM (inactive) | > 30 µM (inactive) | > 30 µM (inactive) | > 30 µM (inactive) | > 30 µM (inactive) |  | > 30 µM (inactive)
9 | NC(=O)Nc1cc(-c2cccc(F)c2)sc1C(=O)N[C@H]1CCCNC1 [AZD-7762] | > 30 µM (inactive) | > 30 µM (inactive) | > 30 µM (inactive) | > 30 µM (inactive) | > 30 µM (inactive) | > 30 µM (inactive) | 1.21 µM (active) | > 30 µM (inactive) |  | > 30 µM (inactive) | > 30 µM (inactive) | > 30 µM (inactive) | > 30 µM (inactive) | 
10 | CCCCCCCCCCCCCCCCCCOP(=O)([O-])OC1CC[N+](C)(C)CC1 [PERIFOSINE] | > 30 µM (inactive) | > 30 µM (inactive) | > 30 µM (inactive) | > 30 µM (inactive) | > 30 µM (inactive) | > 30 µM (inactive) | > 30 µM (inactive) | > 30 µM (inactive) | > 30 µM (inactive) | > 30 µM (inactive) | > 30 µM (inactive) | > 30 µM (inactive) |  | > 30 µM (inactive)
11 | CNC(=O)c1cc(Oc2ccc(NC(=O)Nc3cc(C(C)(C)C)nn3-c3ccc4ncccc4c3)c(F)c2)ccn1 [REBASTINIB] | > 30 µM (inactive) | > 30 µM (inactive) | > 30 µM (inactive) | > 30 µM (inactive) | > 30 µM (inactive) |  |  | 3.5 µM (active) | > 30 µM (inactive) | > 30 µM (inactive) | > 30 µM (inactive) | > 30 µM (inactive) | > 30 µM (inactive) | > 30 µM (inactive)
